What was measured:
[1] = system: Plasmodium berghei asexual blood stages; test: In vivo antimalarial therapeutic efficacy, P. berghei murine model; parameters: species or system CD1 mice
Description: Two out of the six compounds progressed to SMFA, TCMDC-123767 (cluster 30) and TCMDC-141154 (cluster 4), were evaluated in vivo in the Plasmodium berghei murine model. Selection criteria was based on the compound potencies in both asexual stages and gametocytes in the Pf FGAA, as well as on their transmission-blocking activity observed in the SMFA (Table 1). Owing to compound availability, TCMDC-141154 had to be replaced by a close analogue from cluster 4: TCMDC-140549 (Supplementary Data 3). Compounds were tested at 50 mg kg^−1 single dose 2-day oral treatment and efficacy was measured as a reduction of asexual blood stages parasitaemia greater than 40% compared with the vehicle-treated mice.
Pathogen-free CD1 mice (Hsd:ICR) were obtained from Harlan Interfauna Iberica (Barcelona, Spain). Eight weeks old female CD-1 mice were infected intravenously with 10^7 infected erythrocytes (day 0). Dosing solutions were prepared in water containing 5% DMSO/20% Captisol, at a target dose of 50 mg kg^−1. Mice received two oral doses once a day according to their body weight (20 ml kg^−1) starting at day 2 after infection. Control mice received the same treatment schedule with the vehicle used for the compound preparation. Samples from mice peripheral blood were taken before starting treatment and 24 h after finishing the dosing, to measure parasitaemia by flow cytometry, using the YOYO-1 staining, to assess the reduction of parasitaemia compared with the vehicle-treated mice.

[2] = system: P. falciparum female gametes; test: Pf FGAA with compounds added 30 min after triggering gametocyte activation (gamete-targeting); type: cell-based, Plasmodium falciparum NF54; details: Plasmodium falciparum; 0h incubation time
[3] = system: P. falciparum oocysts in Anopheles stephensi mosquitoes; test: Standard membrane feeding assay (SMFA), indirect format; type: cell-based, Plasmodium falciparum; parameters: Oocyst Reduction Intensity %: concentration or dose not given beside the values; details: for Block in transmission (%) (reduction in oocyst prevalence): 1 or 2 μM (Pf FGAA IC90)
Description: To validate the transmission-blocking potential of the TCAMS hits and assess the predictive value of the Pf FGAA as an in vitro high throughput surrogate of full mosquito feeding, the ‘gold-standard' SMFA was performed. Six compounds showing different biological profiles, belonging to four distinct chemical clusters, were selected based on their potencies in the Pf FGAA (Supplementary Data 1, Table 1). For each compound, inhibition of exflagellation of male gametocytes was measured. […] Compounds were tested in duplicate in 2–3 independent experiments in the indirect format of the assay, that is, gametocytes were exposed to the drug for 48 h before mosquito feeding to replicate a drug exposure time equivalent to that used in the Pf FGAA. […] By contrast, TCMDC-124559 reduced prevalence and intensity by <20% (Fig. 6a,b, respectively).
Day-14 gametocyte cultures were plated in pre-warmed six-well-plates (5 ml per well) and were exposed to the compounds (1 μM or 2 μM final concentration) for 48 h at 37 °C (3% O2, 5% CO2 and 92% N2). Within this incubation time, 3 ml of media were removed after the first 24 h and replenished with the same volume of fresh media with compound added to obtain the required final concentration. After 48 h of total exposure, cultures were centrifuged at 2,500 g for 3 min at 37 °C, diluted 1:1 with 100% packed volume of fresh erythrocytes and finally formulated as artificial mosquito blood meals at 50% haematocrit with pre-warmed human serum. All steps were performed at 37 °C to avoid gametocyte activation. Four- to six-day old female Anopheles stephensi mosquitoes (GlaxoSmithKline Insectary) were fed for 30 min via Parafilm membrane attached to glass feeders (12831283, Fisher Scientific) connected to a 37 °C circulating water bath. Fed mosquitoes were maintained in an incubator at 27 °C and 75% relative humidity with 12 h light/dark cycles. Seven to eight days post-feeding, mosquitoes with fully developed ovaries were dissected for midguts, which were rinsed in a 0.2% mercury-dibromofluorescein (63869, Fluka) in water solution for 10 min. Total number of oocysts in individual midguts were counted using a light microscope (DM2000, Leica) under a × 10 objective. The percentage of block in transmission (reduction in prevalence) and the percentage of reduction in mean oocyst intensity were calculated after normalizing to the control DMSO-treated sample. Two to three independent SMFA experiments were performed and two internal duplicates of 40 mosquitoes each were used per compound. Mean oocyst intensities were not less than two oocysts per mosquito and the prevalence of infection ranged from 70 to 90% in the fed mosquito control groups. See complete experimental data set in Supplementary Table 1 and Supplementary Note 1.

[4] = system: P. falciparum male gametocytes (exflagellation); test: Exflagellation assay (male gametocytes); type: cell-based, Plasmodium falciparum; parameters: Exflagellation Inhibition %: concentration or dose not given beside the values
Description: Figure 5 Exflagellation inhibition by six TCAMS compounds. Stage V gametocyte cultures were exposed to 2 μM of TCMDC-141070 and 1 μM of the five remaining compounds for 48 h. The percentage inhibition was determined compared to DMSO-treated controls. Compounds were then progressed into SMFA to further determine the transmission blocking in mosquitoes. Each bar represents mean value of two (TCMDC-125345, TCMDC-141698, TCMDC-123767, TCMDC-141154) or three (TCMDC-141070, TCMDC-124559) independent replicates with s.d.
Exflagellation was measured as previously reported[24] with minor modifications. Using 5 ml of day-14 gametocyte cultures, parasites were incubated with the corresponding concentration for each compound in six-well plates at 37 °C (3% O2, 5% CO2 and 92% N2). After 48 h incubation, a 200 μl sample was spun down in a microfuge, the supernatant was carefully removed and the pellet resuspended in 15 μl of pre-warmed ookinete medium. Parasites were placed in Fast-Read disposable haemocytometer slides and, after 15 min at room temperature (22 °C), exflagellation centres per field were counted under × 10 objective.

[5] = 48 h exposure before feeding, mean of 2-3 experiments
[6] = 48 h exposure, 2 μM TCMDC-141070, 1 μM other compounds, vs DMSO, mean of 2-3 replicates

Structure (SMILES): FC(F)(F)c1cnc(Sc2nnc(-c3ccncc3)o2)c(Cl)c1 [TCMDC-123767]
- reduction of asexual blood stages parasitaemia (threshold 40% vs vehicle) ([1]; 50 mg kg^−1 single dose 2-day oral treatment, mice): not reduced above the threshold
- ED50 ([1]; single dose 2-day treatment, oral, P. berghei mice): > 50 mg/kg
- IC50 [2]: > 20 µM
- Block in transmission (%) (reduction in oocyst prevalence) [3, 5]: 83%
- Block in Transmission % ([3]; Expt 1): 83%
- Mean Oocyst Intensity in Test Compound ([3]; Expt 1): 0.1
- Oocyst Reduction Intensity % ([3]; Expt 1): 97%
- Prevalence of Infection in Test Compound ([3]; Expt 1): 13.26
- Block in Transmission % ([3]; Expt 2): 85%
- Mean Oocyst Intensity in Test Compound ([3]; Expt 2): 0.1
- Oocyst Reduction Intensity % ([3]; Expt 2): 97%
- Prevalence of Infection in Test Compound ([3]; Expt 2): 13.2
- Inhibition of exflagellation (%) [4, 6]: 88%
- Exflagellation Inhibition % ([4]; Expt 1): 88%
- Exflagellation Inhibition % ([4]; Expt 2): 88%

Structure (SMILES): CC1Cc2ccccc2N1S(=O)(=O)c1cccc(C(=O)Nc2nc(-c3ccccn3)cs2)c1 (stereo not shown) [TCMDC-124559]
- Block in transmission (%) (reduction in oocyst prevalence) [3, 5]: < 20%
- reduction in oocyst intensity ([3]; 48 h exposure before feeding, 1 or 2 μM, mean of 2-3 experiments): < 20%
- Block in Transmission % ([3]; Expt 1): 5%
- Mean Oocyst Intensity in Test Compound ([3]; Expt 1): 4.1
- Oocyst Reduction Intensity % ([3]; Expt 1): 24%
- Prevalence of Infection in Test Compound ([3]; Expt 1): 74.29
- Block in Transmission % ([3]; Expt 2): 0%
- Mean Oocyst Intensity in Test Compound ([3]; Expt 2): 2.5
- Oocyst Reduction Intensity % ([3]; Expt 2): 0%
- Prevalence of Infection in Test Compound ([3]; Expt 2): 70
- Block in Transmission % ([3]; Expt 3): 13%
- Mean Oocyst Intensity in Test Compound ([3]; Expt 3): 2.8
- Oocyst Reduction Intensity % ([3]; Expt 3): 39%
- Prevalence of Infection in Test Compound ([3]; Expt 3): 79.17
- Inhibition of exflagellation (%) [4, 6]: 30%
- Exflagellation Inhibition % ([4]; Expt 1): 28%
- Exflagellation Inhibition % ([4]; Expt 2): 0%
- Exflagellation Inhibition % ([4]; Expt 3): 60%

Structure (SMILES): COc1cc(OC)cc(C(=O)Nc2nc(-c3ccccn3)cs2)c1 [TCMDC-125345]
- IC50 [2]: 4.95 µM
- Block in transmission (%) (reduction in oocyst prevalence) [3, 5]: 60%
- Block in Transmission % ([3]; Expt 1): 54%
- Mean Oocyst Intensity in Test Compound ([3]; Expt 1): 0.7
- Oocyst Reduction Intensity % ([3]; Expt 1): 88%
- Prevalence of Infection in Test Compound ([3]; Expt 1): 35.97
- Block in Transmission % ([3]; Expt 2): 58%
- Mean Oocyst Intensity in Test Compound ([3]; Expt 2): 1.0
- Oocyst Reduction Intensity % ([3]; Expt 2): 83%
- Prevalence of Infection in Test Compound ([3]; Expt 2): 38.22
- Inhibition of exflagellation (%) [4, 6]: 50%
- Exflagellation Inhibition % ([4]; Expt 1): 47%

Structure (SMILES): CC(C)(CNC(=O)[C@H]1CCCCN1)c1nc(-c2ccc(Cl)c(O)c2)c(-c2ccncc2)[nH]1 [TCMDC-141070]
- IC50 [2]: 1.77 µM
- Block in Transmission % ([3]; Expt 1): 100%
- Mean Oocyst Intensity in Test Compound ([3]; Expt 1): 0
- Oocyst Reduction Intensity % ([3]; Expt 1): 100%
- Prevalence of Infection in Test Compound ([3]; Expt 1): 0
- Block in Transmission % ([3]; Expt 2): 78%
- Mean Oocyst Intensity in Test Compound ([3]; Expt 2): 0.2
- Oocyst Reduction Intensity % ([3]; Expt 2): 92%
- Prevalence of Infection in Test Compound ([3]; Expt 2): 15.4
- Block in Transmission % ([3]; Expt 3): 100%
- Mean Oocyst Intensity in Test Compound ([3]; Expt 3): 0
- Oocyst Reduction Intensity % ([3]; Expt 3): 100%
- Prevalence of Infection in Test Compound ([3]; Expt 3): 0
- Exflagellation Inhibition % ([4]; Expt 1): 75%
- inhibition at 2 µM ([4]; Plasmodium falciparum, 48 h exposure, 2 μM TCMDC-141070, 1 μM other compounds, vs DMSO, mean of 2-3 replicates): 99%

Structure (SMILES): NCC1(c2nc(-c3ccc(Cl)c(O)c3)c(-c3ccncc3)[nH]2)CCCCC1 [TCMDC-141154]
- IC50 [2]: 0.25 µM
- Block in transmission (%) (reduction in oocyst prevalence) [3, 5]: 93%
- Block in Transmission % ([3]; Expt 1): 93%
- Mean Oocyst Intensity in Test Compound ([3]; Expt 1): 0.1
- Oocyst Reduction Intensity % ([3]; Expt 1): 99%
- Prevalence of Infection in Test Compound ([3]; Expt 1): 5.46
- Block in Transmission % ([3]; Expt 2): 93%
- Mean Oocyst Intensity in Test Compound ([3]; Expt 2): 0.1
- Oocyst Reduction Intensity % ([3]; Expt 2): 98%
- Prevalence of Infection in Test Compound ([3]; Expt 2): 6.16
- Inhibition of exflagellation (%) [4, 6]: 97%
- Exflagellation Inhibition % ([4]; Expt 1): 97%
- Exflagellation Inhibition % ([4]; Expt 2): 97%

Structure (SMILES): Cc1ccc(Cn2nc(Cl)c(N3CCNCC3)cc2=O)cc1NC(=O)Nc1ccc(-c2ccccc2)cc1 [TCMDC-141698]
- IC50 [2]: 1.93 µM
- Block in transmission (%) (reduction in oocyst prevalence) [3, 5]: 82%
- Block in Transmission % ([3]; Expt 1): 82%
- Mean Oocyst Intensity in Test Compound ([3]; Expt 1): 0.2
- Oocyst Reduction Intensity % ([3]; Expt 1): 97%
- Prevalence of Infection in Test Compound ([3]; Expt 1): 14.04
- Block in Transmission % ([3]; Expt 2): 90%
- Mean Oocyst Intensity in Test Compound ([3]; Expt 2): 0.2
- Oocyst Reduction Intensity % ([3]; Expt 2): 97%
- Prevalence of Infection in Test Compound ([3]; Expt 2): 8.8
- Inhibition of exflagellation (%) [4, 6]: 84%
- Exflagellation Inhibition % ([4]; Expt 2): 87%
